In assay [1] the test system is adverse drug reactions of lost hair on the head and rough skin. To be noted: person, hydrogen gas 6.6% by volume, approximately 120 mL/min.
Assay [2] has as its system rhabdomyolysis caused by the antibacterial agent. Particulars: person, hydrogen gas 6.6% by volume, approximately 120 mL/min, 90 minutes per day for two weeks.
From the text: They lost strength in the body and was taken to hospital by ambulance. […] They were discharged from hospital one week later, but the tiredness persisted, and they had difficulty in putting strength into the limbs. […] Their condition improved to the extent that they could have a walk.
The test system of assay [3] is malaise and nausea after radiotherapy. Particulars: cancer patient after radiotherapy, hydrogen gas 3% to 4% by volume, approximately 120 mL/min.
In assay [4] the test system is adverse drug reaction of persistent insomnia, malaise. To be noted: person. From the text:
A patient with esophageal cancer experienced an adverse drug reaction of persistent insomnia due to treatment with anticancer agents, lost appetite because of malaise, and could not even go out. […] The inhalation time per day was two to three hours. […] When they drank too much alcohol, they used to have a severe hangover.

In assay [5] the test system is adverse drug reactions of malaise and rough skin. To be noted: person; hydrogen gas 4% to 5% by volume, approximately 200 mL/min, three to five hours per day, plus 500 mL per day of 7 ppm hydrogen water; three months.
The test system of assay [6] is adverse reactions to hemodialysis (walking difficulty, edema). To be noted: person on hemodialysis, hydrogen approximately 5% in air, 200 mL/min, three to four hours per day. From the text: A patient developed renal failure as a complication of diabetes mellitus and has been receiving hemodialysis since 2006.
Assay [7] has as its system adverse drug reactions of sleepiness and tiredness. Particulars: person, three days later.
For assay [8] the following is noted: known; cited from earlier work.

Take `[HH]` [hydrogen gas, molecular hydrogen]: in assay [1] (sarcoma, anticancer agents and Opdivo, approximately one month later), the rough skin result is “the rough skin started improving”. Further, the “hair on the head” value in assay [1] (inhalation continued for six months after anticancer treatment) is given as “started growing”. Further, the “strength in the limbs” value in assay [2] (new quinolone antibacterial agent) is “became gradually able to put strength into the limbs”. Besides, the tiredness result in assay [2] was “reduced tiredness”. Besides, in assay [3] (90 minutes later), the nausea result is “Nausea was gradually resolving”. Further, the “malaise (body feeling)” value in assay [3] (one hour after start of inhalation) is given as “they felt the body becoming light”. The “sleep (insomnia)” value in assay [4] (esophageal cancer, hydrogen gas 1.3% by volume, approximately 30 mL/min, two to three hours per day, following the second inhalation) is given as “could sleep soundly”. For the same compound, the “ability to go out / body feeling” value in assay [4] (hydrogen gas 1.3% by volume, approximately 30 mL/min, two to three hours per day) is given as “the patient was able to go out”. Also, the “hangover after too much alcohol” value in assay [4] (hydrogen inhaled before going to sleep) is “a hangover started improving earlier than usual”. Besides, in assay [5], the malaise entry is reported as “malaise subsided” and the skin condition result was “the skin started becoming lustrous”. Also, the walking difficulty result in assay [6] (from 10 days after initiation) is “able to walk”. The edema after dialysis result in assay [6] (from one month after initiation) is listed as “edema was reduced”. The “tiredness of the body after taking the drugs” value in assay [7] (cedar pollinosis, hydrogen gas 6.6% by volume, approximately 120 mL/min, 90 minutes to three hours per day, plus 7 ppm hydrogen water 500 mL to 1 L per day) is given as “reduced”. Further, in assay [7] (hydrogen gas 6.6% by volume plus 7 ppm hydrogen water), the “sleepiness / clearness of the head” value is on record as “they felt that the head was cleared”.

`[2H][2H]` [D2, deuterium]: the “superoxide eliminating effect compared with H2” value in assay [8] is “stronger”.

Values taken from patent US20220023335A1, “COMPOSITION FOR PREVENTION AND/OR IMPROVEMENT OF ADVERSE DRUG REACTION, SYMPTOM ASSOCIATED WITH ADVERSE DRUG REACTION, AND/OR ADVERSE REACTION ASSOCIATED WITH MEDICAL TREATMENT” (MiZ Company Limited, priority 2020, published 2022).
